{"source": "paper PMC12264960", "about": "“siRNA Interaction and Transfection Properties of Polycationic Phosphorus Dendrimers” (Biomacromolecules, 2025)", "origin": "cited, not measured here", "key": {"[1]": {"test_system": "translation in the eukaryotic system", "parameters": "method as in earlier work", "details": "ref [4]"}, "[2]": {"test_system": "translation in the prokaryotic system", "parameters": "method as in earlier work", "details": "ref [4]"}}}
{"smiles": "NC1C(OCOC2C(N)[C@H](O[C@H]3C(N)C[C@H](N)C(O)C3O)OC(CO)[C@@H]2O)[C@H](O)C(CO)O[C@@H]1O[C@@H]1C(N)C[C@@H](N)C(O)C1O", "note": "(some centres unmarked) [NB33]", "values": [{"measurement": "fold better inhibitor of translation compared to apramycin", "setting": "[1]", "result": 10, "unit": "fold"}, {"measurement": "times weaker inhibitor of translation compared to apramycin", "setting": "[2]", "result": 22, "unit": "times"}]}
